Reference: patent US20250171430A1, “PYRAZOLYL COMPOUNDS AS KV7 CHANNEL ACTIVATORS” (Biohaven Therapeutics Ltd., priority 2022, published 2025)

Target: T1, Kv7.2/7.3 (Homo sapiens, UniProt O43525+O43526)
T1 construct: Kv7.2 tetracycline-induced, Kv7.3 constitutive
Experiment: Kv7.2/7.3 Activation Assay (Thallium Flux Assay)
Format: cell-based
Details: hKV7.2/7.3 cell line; test compound at single concentration of 10 μM; fluorescence at 90 sec normalized to positive control (retigabine, 30 μM)
Method in brief: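 Single-point activity at 10 μM (0.1% DMSO, HEPES-buffered saline, pH 7.4) was scored from fluorescence at 90 s relative to 30 μM retigabine. Categories were none <0.15, moderate 0.15-0.7 and high >0.7. Thallium influx after stimulus addition was followed with FluxOR II Green dye in hKv7.2/7.3 cells, Kv7.2 expressed under overnight tetracycline (10 ng/mL) induction.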

Row | SMILES | Kv7.2/7.3 Activity
1 | Cn1nc(NC(=O)[C@@H]2C[C@H]2F)c(C2CCC2)c1-c1ccc(F)cc1 [Compound 219, (1S,2R)-N-(4-cyclobutyl-5-(4-fluorophenyl)-1-methyl-1H-pyrazol-3-yl)-2-fluorocyclopropane-1-carboxamide] | − (“−” No Activity < 0.15)
2 | Cn1nc(NC(=O)C2CC(F)(F)C2)c(C2CCC2)c1-c1ccc(Cl)cc1 [Compound 220, N-(5-(4-chlorophenyl)-4-cyclobutyl-1-methyl-1H-pyrazol-3-yl)-3,3-difluorocyclobutane-1-carboxamide] | ++ (“++” High Activity ≥ 0.7)
3 | Cn1nc(NC(=O)C2(C)CC(F)(F)C2)c(C2CCC2)c1-c1ccc(Cl)cc1 [Compound 221, N-(5-(4-chlorophenyl)-4-cyclobutyl-1-methyl-1H-pyrazol-3-yl)-3,3-difluoro-1-methylcyclobutane-1-carboxamide] | + (“+” Moderate Activity 0.15-0.7)
4 | Cn1nc(NC(=O)CC2CC(F)(F)C2)c(C2CCC2)c1-c1ccc(Cl)cc1 [Compound 222, N-(5-(4-chlorophenyl)-4-cyclobutyl-1-methyl-1H-pyrazol-3-yl)-2-(3,3-difluorocyclobutyl)acetamide] | ++ (“++” High Activity ≥ 0.7)
5 | Cn1nc(NC(=O)[C@@H]2CC2(F)F)c(C2CCC2)c1-c1ccc(Cl)cc1 [Compound 223, (S)-N-(5-(4-chlorophenyl)-4-cyclobutyl-1-methyl-1H-pyrazol-3-yl)-2,2-difluorocyclopropane-1-carboxamide] | + (“+” Moderate Activity 0.15-0.7)
6 | Cn1nc(NC(=O)[C@H]2CC2(F)F)c(C2CCC2)c1-c1ccc(Cl)cc1 [Compound 224, (R)-N-(5-(4-chlorophenyl)-4-cyclobutyl-1-methyl-1H-pyrazol-3-yl)-2,2-difluorocyclopropane-1-carboxamide] | − (“−” No Activity < 0.15)
7 | Cc1nnsc1-c1c(C2CCC2)c(NC(=O)C2CC(F)(F)C2)nn1C [Compound 225, N-(4-cyclobutyl-1-methyl-5-(4-methyl-1,2,3-thiadiazol-5-yl)-1H-pyrazol-3-yl)-3,3-difluorocyclobutane-1-carboxamide] | + (“+” Moderate Activity 0.15-0.7)
8 | Cn1nc(NC(=O)OC2CC(F)(F)C2)c(C2CCC2)c1-c1ccc(Cl)s1 [Compound 226, 3,3-difluorocyclobutyl (5-(5-chlorothiophen-2-yl)-4-cyclobutyl-1-methyl-1H-pyrazol-3-yl)carbamate] | ++ (“++” High Activity ≥ 0.7)
9 | Cn1nc(NC(=O)C2COC2)c(C2CCC2)c1-c1ccc(F)cc1 [Compound 227, N-(4-cyclobutyl-5-(4-fluorophenyl)-1-methyl-1H-pyrazol-3-yl)oxetane-3-carboxamide] | − (“−” No Activity < 0.15)
10 | Cn1nc(NC(=O)C2CS(=O)(=O)C2)c(C2CCC2)c1-c1ccc(F)cc1 [Compound 228, N-(4-cyclobutyl-5-(4-fluorophenyl)-1-methyl-1H-pyrazol-3-yl)thietane-3-carboxamide 1,1-dioxide] | − (“−” No Activity < 0.15)
11 | O=C(Nc1nn(CCO)c(-c2ccc(Cl)s2)c1C1CCC1)C1CC(F)(F)C1 [Compound 229, N-(5-(5-chlorothiophen-2-yl)-4-cyclobutyl-1-(2-hydroxyethyl)-1H-pyrazol-3-yl)-3,3-difluorocyclobutane-1-carboxamide] | ++ (“++” High Activity ≥ 0.7)
12 | Cn1nc(NC(=O)C[C@@H]2CC(F)(F)C2(F)F)c(C2CCC2)c1-c1ccc(Cl)s1 [Compound 230, (R)-N-(5-(5-chlorothiophen-2-yl)-4-cyclobutyl-1-methyl-1H-pyrazol-3-yl)-2-(2,2,3,3-tetrafluorocyclobutyl)acetamide] | ++ (“++” High Activity ≥ 0.7)
13 | Cn1nc(NC(=O)C[C@H]2CC(F)(F)C2(F)F)c(C2CCC2)c1-c1ccc(Cl)s1 [Compound 231, (S)-N-(5-(5-chlorothiophen-2-yl)-4-cyclobutyl-1-methyl-1H-pyrazol-3-yl)-2-(2,2,3,3-tetrafluorocyclobutyl)acetamide] | ++ (“++” High Activity ≥ 0.7)
14 | Cn1nc(NC(=O)C23CC(C(F)(F)F)(C2)C3)c(C2CCC2)c1-c1ccc(Cl)s1 [Compound 232, N-(5-(5-chlorothiophen-2-yl)-4-cyclobutyl-1-methyl-1H-pyrazol-3-yl)-3-(trifluoromethyl)bicyclo[1.1.1]pentane-1-carboxamide] | ++ (“++” High Activity ≥ 0.7)
15 | CO[C@@H](CC(=O)Nc1nn(C)c(-c2ccc(Cl)s2)c1C1CCC1)C(F)(F)F [Compound 233, (S)-N-(5-(5-chlorothiophen-2-yl)-4-cyclobutyl-1-methyl-1H-pyrazol-3-yl)-4,4,4-trifluoro-3-methoxybutanamide] | ++ (“++” High Activity ≥ 0.7)
16 | C[C@@H](C(=O)Nc1nn(C)c(-c2ccc(Cl)s2)c1C1CCC1)C1(C(F)(F)F)CC1 [Compound 234, (R)-N-(5-(5-chlorothiophen-2-yl)-4-cyclobutyl-1-methyl-1H-pyrazol-3-yl)-2-(1-(trifluoromethyl)cyclopropyl)propanamide] | ++ (“++” High Activity ≥ 0.7)

Row | SMILES | Kv7.2/7.3 Activity
17 | Cn1nc(NC(=O)C[C@@H]2CC(F)(F)C2(F)F)c(C2CCC2)c1-c1ccc(F)c(F)c1 [Compound 235, (R)-N-(4-cyclobutyl-5-(3,4-difluorophenyl)-1-methyl-1H-pyrazol-3-yl)-2-(2,2,3,3-tetrafluorocyclobutyl)acetamide] | ++ (“++” High Activity ≥ 0.7)
18 | Cn1nc(NC(=O)C[C@H]2CC(F)(F)C2(F)F)c(C2CCC2)c1-c1ccc(F)c(F)c1 [Compound 236, (S)-N-(4-cyclobutyl-5-(3,4-difluorophenyl)-1-methyl-1H-pyrazol-3-yl)-2-(2,2,3,3-tetrafluorocyclobutyl)acetamide] | ++ (“++” High Activity ≥ 0.7)
19 | Cn1nc(NC(=O)N[C@H]2CCC(F)(F)C2)c(C2CCC2)c1-c1ccc(F)cc1 [Compound 237, (S)-1-(4-cyclobutyl-5-(4-fluorophenyl)-1-methyl-1H-pyrazol-3-yl)-3-(3,3-difluorocyclopentyl)urea] | + (“+” Moderate Activity 0.15-0.7)
20 | Cn1nc(NC(=O)N[C@@H]2CCC(F)(F)C2)c(C2CCC2)c1-c1ccc(F)cc1 [Compound 238, (R)-1-(4-cyclobutyl-5-(4-fluorophenyl)-1-methyl-1H-pyrazol-3-yl)-3-(3,3-difluorocyclopentyl)urea] | + (“+” Moderate Activity 0.15-0.7)
21 | Cc1nnc(-c2c(C3CCC3)c(NC(=O)CC3CC(F)(F)C3)nn2C)s1 [Compound 239, N-(4-cyclobutyl-1-methyl-5-(5-methyl-1,3,4-thiadiazol-2-yl)-1H-pyrazol-3-yl)-2-(3,3-difluorocyclobutyl)acetamide] | − (“−” No Activity < 0.15)
22 | Cn1nc(NC(=O)NCC(F)(F)F)c(C2CCC2)c1-c1ccc(F)cc1 [Compound 240, 1-(4-cyclobutyl-5-(4-fluorophenyl)-1-methyl-1H-pyrazol-3-yl)-3-(2,2,2-trifluoroethyl)urea] | + (“+” Moderate Activity 0.15-0.7)
23 | Cn1nc(NC(=O)OC2CC(F)(F)C2)c(C2CCC2)c1-c1ccc(F)cc1 [Compound 241, 3,3-difluorocyclobutyl (4-cyclobutyl-5-(4-fluorophenyl)-1-methyl-1H-pyrazol-3-yl)carbamate] | ++ (“++” High Activity ≥ 0.7)
24 | Cn1nc(NC(=O)NCC2CC(F)(F)C2)c(C2CCC2)c1-c1ccc(F)cc1 [Compound 242, 1-(4-cyclobutyl-5-(4-fluorophenyl)-1-methyl-1H-pyrazol-3-yl)-3-((3,3-difluorocyclobutyl)methyl)urea] | + (“+” Moderate Activity 0.15-0.7)
25 | Cn1nc(NC(=O)OCC2CC(F)(F)C2)c(C2CCC2)c1-c1ccc(F)cc1 [Compound 243, (3,3-difluorocyclobutyl)methyl (4-cyclobutyl-5-(4-fluorophenyl)-1-methyl-1H-pyrazol-3-yl)carbamate] | ++ (“++” High Activity ≥ 0.7)
26 | Cn1nc(NC(=O)NC2CC3(C2)CC(F)(F)C3)c(C2CCC2)c1-c1ccc(F)cc1 [Compound 244, 1-(4-cyclobutyl-5-(4-fluorophenyl)-1-methyl-1H-pyrazol-3-yl)-3-(6,6-difluorospiro[3.3]heptan-2-yl)urea] | − (“−” No Activity < 0.15)
27 | Cn1nc(NC(=O)NC(C)(C)C)c(C2CCC2)c1-c1ccc(F)cc1 [Compound 245, 1-(tert-butyl)-3-(4-cyclobutyl-5-(4-fluorophenyl)-1-methyl-1H-pyrazol-3-yl)urea] | + (“+” Moderate Activity 0.15-0.7)
28 | COCCNC(=O)Nc1nn(C)c(-c2ccc(F)cc2)c1C1CCC1 [Compound 246, 1-(4-cyclobutyl-5-(4-fluorophenyl)-1-methyl-1H-pyrazol-3-yl)-3-(2-methoxyethyl)urea] | − (“−” No Activity < 0.15)
29 | Cn1nc(NC(=O)C2CC(F)(F)C2)c(C2CCC2)c1-c1ccc(C(C)(C)O)s1 [Compound 247, N-(4-cyclobutyl-5-(5-(2-hydroxypropan-2-yl)thiophen-2-yl)-1-methyl-1H-pyrazol-3-yl)-3,3-difluorocyclobutane-1-carboxamide] | − (“−” No Activity < 0.15)
30 | Cn1nc(NC(=O)C2CSC2)c(C2CCC2)c1-c1ccc(Cl)s1 [Compound 248, N-(5-(5-chlorothiophen-2-yl)-4-cyclobutyl-1-methyl-1H-pyrazol-3-yl)thietane-3-carboxamide] | ++ (“++” High Activity ≥ 0.7)
31 | Cn1nc(NC(=O)C2CC3(C2)CC(F)(F)C3)c(C2CCC2)c1-c1ccc(Cl)s1 [Compound 249, N-(5-(5-chlorothiophen-2-yl)-4-cyclobutyl-1-methyl-1H-pyrazol-3-yl)-6,6-difluorospiro[3.3]heptane-2-carboxamide] | ++ (“++” High Activity ≥ 0.7)
